Earlier results on four compounds are cited in patent US20070066591A1, “Compounds, compositions, and methods” (priority 2003, published 2007).

The series has as its system A549 cells. The note with it: data provided by National Cancer Institute, Developmental Therapeutic Program.

Each structure is given as a SMILES string.

Regarding `CC(=O)O[C@H]1C(=O)[C@@]2(C)[C@H]([C@H](OC(=O)c3ccccc3)[C@]3(O)C[C@H](OC(=O)[C@H](O)[C@@H](NC(=O)c4ccccc4)c4ccccc4)C(C)=C1C3(C)C)[C@]1(OC(C)=O)CO[C@@H]1C[C@@H]2O` [paclitaxel], the GI50 was 4 nM.

In the case of `O=c1[nH]cc(F)c(=O)[nH]1` [5-fluorouracil], the GI50 is 1000 nM.

As for `NC(=O)NO` [hydroxyurea], the GI50 was 500000 nM.

In the case of `COc1cccc2c1C(=O)c1c(O)c3c(c(O)c1C2=O)C[C@@](O)(C(=O)CO)C[C@@H]3O[C@H]1C[C@H](N)[C@H](O)[C@H](C)O1` [doxorubicin], the GI50 was 63 nM.

The term GI50 denotes the concentration at which growth is held to half of that of the control.
